Assays:
COX-2 = COX-2 (Homo sapiens, UniProt P35354); test: COX-2 inhibitory activity; assay type: biochemical; settings: concentrations up to 50 μM
RPMI-8226 = test: NCI DTP cell line screen (SRB), Leukemia; assay type: cell-based, human
Experimental: (§1) Screening of compounds 70 and 71 against several cancer cell lines The human tumor cell lines of the cancer screening panel are grown in RPMI 1640 medium containing 5% fetal bovine serum and 2 mM L-glutamine. For a typical screening experiment, cells are inoculated into 96 well microtiter plates in 100 μL at plating densities ranging from 5,000 to 40,000 cells/well depending on the doubling time of individual cell lines. After cell inoculation, the microtiter plates are incubated at 37° C., 5% CO2, 95% air and 100% relative humidity for 24 h prior to addition of experimental drugs.
(§2) After 24 h, two plates of each cell line are fixed in situ with TCA, to represent a measurement of the cell population for each cell line at the time of drug addition (Tz). Experimental drugs are solubilized in dimethyl sulfoxide at 400-fold the desired final maximum test concentration and stored frozen prior to use. At the time of drug addition, an aliquot of frozen concentrate is thawed and diluted to twice the desired final maximum test concentration with complete medium containing 50 μg/ml gentamicin. Additional four, 10-fold or ½ log serial dilutions are made to provide a total of five drug concentrations plus control. Aliquots of 100 μl of these different drug dilutions are added to the appropriate microtiter wells already containing 100 μl of medium, resulting in the required final drug concentrations.
(§3) Following drug addition, the plates are incubated for an additional 48 h at 37° C., 5% CO2, 95% air, and 100% relative humidity. For adherent cells, the assay is terminated by the addition of cold TCA. Cells are fixed in situ by the gentle addition of 50 μl of cold 50% (w/v) TCA (final concentration, 10% TCA) and incubated for 60 minutes at 4° C. The supernatant is discarded, and the plates are washed five times with tap water and air dried. Sulforhodamine B (SRB) solution (100 μl) at 0.4% (w/v) in 1% acetic acid is added to each well, and plates are incubated for 10 minutes at room temperature. After staining, unbound dye is removed by washing five times with 1% acetic acid and the plates are air dried. Bound stain is subsequently solubilized with 10 mM trizma base, and the absorbance is read on an automated plate reader at a wavelength of 515 nm. For suspension cells, the methodology is the same except that the assay is terminated by fixing settled cells at the bottom of the wells by gently adding 50 μl of 80% TCA (final concentration, 16% TCA). Using the seven absorbance measurements [time zero, (Tz), control growth, (C), and test growth in the presence of drug at the five concentration levels (Ti)], the percentage growth is calculated at each of the drug concentrations levels. Percentage growth inhibition is calculated as: [(Ti−Tz)/(C−Tz)]×100 for concentrations for which Ti>/=Tz [(Ti−Tz)/Tz]×100 for concentrations for which Ti<Tz
(§4) Three dose response parameters are calculated for each experimental agent. […] The drug concentration resulting in total growth inhibition (TGI) is calculated from Ti=Tz. […] Values are calculated for each of these three parameters if the level of activity is reached; however, if the effect is not reached or is exceeded, the value for that parameter is expressed as greater or less than the maximum or minimum concentration tested.
(§5) The methods described were used to test compounds 70 and 71 on a panel of sixty cell lines under a screening service provided by the Developmental Therapeutics Program at the National Institutes of Health. Shown in FIG. 1C are 1, RPMI-8226 leukemia cells; 2; NCI-H322M non-small cell lung cancer cells; 3, HT29 colon cancer cells; 4, U251 CNS cancer cells; 5, SK-MEL-28 melanoma cancer cells; 6, SK-OV-3 ovarian cancer cells; 7, RXF 393 renal cancer cells; 8, PC-3 prostate cancer cells; 9, MDA-MB-231 breast cancer cells.

HT29 = test: NCI DTP cell line screen (SRB), Colon Cancer; assay type: cell-based
LOX IMVI = test: NCI DTP cell line screen (SRB), Melanoma; assay type: cell-based
Experimental: as §1, §2, §3, §4, §5

M14 = test: NCI DTP cell line screen (SRB), Melanoma; assay type: cell-based
Experimental: as §1, §2, §3, §4, §5

SK-MEL-28 = test: NCI DTP cell line screen (SRB), Melanoma; assay type: cell-based
Experimental: as §1, §2, §3, §4, §5

SK-MEL-2 = test: NCI DTP cell line screen (SRB), Melanoma; assay type: cell-based
Experimental: as §1, §2, §3, §4, §5

ACHN = test: NCI DTP cell line screen (SRB), Renal Cancer; assay type: cell-based, human
Experimental: as §1, §2, §3, §4, §5

CAKI-1 = test: NCI DTP cell line screen (SRB), Renal Cancer; assay type: cell-based, human
Experimental: as §1, §2, §3, §4, §5

Sequence of COX-2 (P35354 18-604): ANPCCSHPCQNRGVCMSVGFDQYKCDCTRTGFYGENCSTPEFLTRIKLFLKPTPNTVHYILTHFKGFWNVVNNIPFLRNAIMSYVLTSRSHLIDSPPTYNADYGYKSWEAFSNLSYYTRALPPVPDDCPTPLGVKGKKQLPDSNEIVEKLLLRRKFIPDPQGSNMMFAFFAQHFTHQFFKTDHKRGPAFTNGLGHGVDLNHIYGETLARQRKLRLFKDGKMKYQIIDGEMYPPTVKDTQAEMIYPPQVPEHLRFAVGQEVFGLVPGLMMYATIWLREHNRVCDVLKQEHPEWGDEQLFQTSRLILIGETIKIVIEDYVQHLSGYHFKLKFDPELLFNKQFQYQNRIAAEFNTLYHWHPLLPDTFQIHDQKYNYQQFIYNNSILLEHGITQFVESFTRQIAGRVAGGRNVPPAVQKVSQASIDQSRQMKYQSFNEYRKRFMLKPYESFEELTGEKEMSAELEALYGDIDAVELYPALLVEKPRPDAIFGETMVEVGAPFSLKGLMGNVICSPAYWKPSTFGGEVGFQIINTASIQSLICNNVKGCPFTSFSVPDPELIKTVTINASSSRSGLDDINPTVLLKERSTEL

NCC(=O)Nc1ccc(-n2nc(C(F)(F)F)cc2-c2ccc3c(ccc4ccccc43)c2)cc1 [Compound 70, 2-Amino-N-{4-[5-(2-phenanthrenyl)-3-(trifluoromethyl)-1H-pyrazol-1-yl]-phenyl}-acetamide]
COX-2 inhibitory activity (COX-2): nor was any measurable COX-2 inhibitory activity detected | Percent Growth (RPMI-8226; Log10 Concentration −4.0): −31% | Percent Growth (RPMI-8226; Log10 Concentration −5.0): −51% | Percent Growth (RPMI-8226; Log10 Concentration −6.0): 42% | Percent Growth (RPMI-8226; Log10 Concentration −7.0): 72% | Percent Growth (RPMI-8226; Log10 Concentration −8.0): 85% | TGI (RPMI-8226; in M (unit assumed)): 2.84E−06 | TGI (HT29): 2.64E−06 | Percent Growth (HT29; Log10 Concentration −4.0): −26% | Percent Growth (HT29; Log10 Concentration −5.0): −65% | Percent Growth (HT29; Log10 Concentration −6.0): 47% | Percent Growth (HT29; Log10 Concentration −7.0): 88% | Percent Growth (HT29; Log10 Concentration −8.0): 92% | TGI (LOX IMVI): 3.07E−06 | Percent Growth (LOX IMVI; Log10 Concentration −5.0): −50% | Percent Growth (LOX IMVI; Log10 Concentration −6.0): 48% | Percent Growth (LOX IMVI; Log10 Concentration −7.0): 76% | Percent Growth (LOX IMVI; Log10 Concentration −8.0): 105% | TGI (M14): 5.37E−06 | Percent Growth (M14; Log10 Concentration −4.0): −19% | Percent Growth (M14; Log10 Concentration −5.0): −33% | Percent Growth (M14; Log10 Concentration −6.0): 90% | Percent Growth (M14; Log10 Concentration −7.0): 98% | Percent Growth (M14; Log10 Concentration −8.0): 98% | TGI (SK-MEL-28): 2.64E−06 | Percent Growth (SK-MEL-28; Log10 Concentration −4.0): −59% | Percent Growth (SK-MEL-28; Log10 Concentration −5.0): −87% | Percent Growth (SK-MEL-28; Log10 Concentration −6.0): 63% | Percent Growth (SK-MEL-28; Log10 Concentration −7.0): 83% | Percent Growth (SK-MEL-28; Log10 Concentration −8.0): 94% | TGI (SK-MEL-2): 5.40E−06 | Percent Growth (SK-MEL-2; Log10 Concentration −4.0): −28% | Percent Growth (SK-MEL-2; Log10 Concentration −5.0): −37% | Percent Growth (SK-MEL-2; Log10 Concentration −6.0): 100% | Percent Growth (SK-MEL-2; Log10 Concentration −7.0): 117% | Percent Growth (SK-MEL-2; Log10 Concentration −8.0): 114% | Percent Growth (ACHN; Log10 Concentration −4.0): −16% | Percent Growth (ACHN; Log10 Concentration −5.0): −60% | Percent Growth (ACHN; Log10 Concentration −6.0): 70% | Percent Growth (ACHN; Log10 Concentration −7.0): 102% | Percent Growth (ACHN; Log10 Concentration −8.0): 94% | TGI (ACHN; in M (unit assumed)): 3.45E−06 | Percent Growth (CAKI-1; Log10 Concentration −4.0): −44% | Percent Growth (CAKI-1; Log10 Concentration −5.0): −75% | Percent Growth (CAKI-1; Log10 Concentration −6.0): 42% | Percent Growth (CAKI-1; Log10 Concentration −7.0): 95% | Percent Growth (CAKI-1; Log10 Concentration −8.0): 87% | TGI (CAKI-1; in M (unit assumed)): 2.27E−06

From patent publication US8541460B2, “PDK-1/Akt signaling inhibitors” (The Ohio State University, priority 2003, dated 2013)
